Usually IC50 stands for the concentration needed to halve the response being measured. What is called pIC50 is −log10 of the IC50, conventionally taken in molar units.

This note sets out measurements from PubChem BioAssay AID1159557 (GlaxoSmithKline (GSK), 2015).

In the assay the test system is Trypanosoma brucei growth inhibition. Briefly: T. brucei growth inhibition (AID 1159557).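 Further: parasites exposed to compound for 48 h before the resazurin readout.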

pIC50: −log10 of the molar value. Active and inactive are the calls of the source. How the calls were made is not given here. Where only a bound is given, the exact number is not on record here.

For `CC(C)N(C(=O)CN1C(=O)C(N)C(=O)N(c2ccccc2)c2ccccc21)c1ccccc1` (stereo not drawn), the IC50 was > 40 µM (inactive).

Consider `CN(C)c1ncc(-c2cncn2CCOc2ccc(Cl)cc2)cn1`, for which the IC50 is > 40 µM (inactive).

For `Cc1c(CNC(=O)c2ccc(Cn3cc(Cl)c([N+](=O)[O-])n3)cc2)cnn1C`, the pIC50 was 5.30.

For the molecule `Cc1ccc(NC(C)C(=O)Nc2ccc(C#N)cc2)cc1S(=O)(=O)N1CCCCC1` (stereo not drawn), the pIC50 is 5.10.

Turning to `COCc1cnc2c(c1SCc1c(F)cccc1Cl)c(=O)n(C)c(=O)n2C`, the negative logarithm of the IC50 (pIC50) is 5.40.

As to `O=C(CN(Cc1ccccn1)Cc1ccccn1)NCc1csc(-c2cccs2)n1`, the pIC50 was 4.70.

As for `CC1CN(Cc2ccc(C#N)cc2)CCN1c1ccc(NC(=O)c2ccccc2F)cc1` (stereo not drawn), the IC50 is > 40 µM (inactive).

In the case of `C=CCN(Cc1cccs1)C(=O)CSc1nnc(-c2ccc3c(c2)OCO3)o1`, the pIC50 was 4.70.

Regarding `COc1ccc(C(=O)NC2CCN(CCn3c(=O)ccc4ncc(F)cc43)CC2)cc1Cl`, the negative-log IC50 (pIC50) is 6.89.

Regarding `COc1ccc(Nc2nc(-c3ccccn3)cc(N3CCCC(O)C3)n2)cc1` (stereo not drawn), the pIC50 was 5.40.

In the case of `NS(=O)(=O)c1ccc(Nc2nccc(-c3cnn4ncccc34)n2)cc1`, the pIC50 is 7.10.

Regarding `O=C(Nc1cccc(Cl)c1)N1CCCCC1c1cccnc1` (stereo not drawn), the IC50 is > 40 µM (inactive).

`COc1ccc(-c2cnc(NC(=O)c3cc(-c4ccccn4)n[nH]3)n2C)cc1`: the pIC50 was 6.40.

Regarding `CCN(Cc1ccncc1)Cc1ccc(NC(=O)c2cc(-c3ccc(F)cc3)n[nH]2)cc1`, the IC50 is > 40 µM (inactive).

Regarding `CCC(c1ccc(F)cc1)n1cncc1-c1cnn(C)c1` (stereo not drawn), the IC50 was > 40 µM (inactive).

For `NCc1csc(Nc2cc(Oc3ccccc3)ncn2)n1`, the negative-log IC50 (pIC50) was 6.20.

Regarding `O=c1cc(CSc2ccc(Cl)cc2)nc(-c2ccccn2)[nH]1`, the pIC50 is 6.10.

`COc1ccc(OC)c(NC(=O)c2ccc([N+](=O)[O-])o2)c1`: the negative logarithm of the IC50 (pIC50) is 7.80.

Take `CN(C)S(=O)(=O)c1cccc(C(=O)Nc2nc(-c3ccccn3)cs2)c1`: the negative-log IC50 (pIC50) is 6.30.

Take `Cc1cc(=O)n2nc(Oc3ccc(C#N)cc3Cl)sc2n1`: the pIC50 was 6.20.

Consider `Oc1cccnc1-c1n[nH]c(Cc2ccccc2)n1`, for which the pIC50 was 5.30.

With `COc1ccc(C)cc1-c1csc(NC(=O)C(C)n2ccnc2)n1` (stereo not drawn), the negative-log IC50 (pIC50) is 4.60.

Consider `Nc1nc(-c2ccccn2)nc(-n2nc(-c3ccccc3)cc2N)n1`, for which the pIC50 was 6.00.

Regarding `CN(C(=O)Nc1ccc2c(c1)CCN(C1CCC1)CC2)c1ccc(C#N)cc1`, the negative logarithm of the IC50 (pIC50) was 6.70.

`Cc1ccccc1CNc1cc(C2CC2)nc(-c2nccn2C)n1`: the negative logarithm of the IC50 (pIC50) is 5.60.

Regarding `CCN(Cc1cccs1)C(=O)CSc1nnc(-c2ccc3c(c2)OCO3)o1`, the pIC50 was 4.60.

As to `COc1ccc([N+](=O)[O-])cc1NC(=O)c1cc(Cl)ccc1O`, the pIC50 is 4.60.

With `Cc1nc2c(-c3ncn[nH]3)cc(NC(=O)Cc3ccccc3)cn2c1C`, the pIC50 was 5.49.

In the case of `CN(C)CCN(C)Cc1ccc(Cl)cc1NS(=O)(=O)c1ccc(Cl)c(Cl)c1`, the pIC50 was 5.10.

Take `O=C(CCCNC(=O)c1ccc(Cl)cc1)Nc1nc(-c2ccccn2)cs1`: the pIC50 is 5.10.

With `COc1ccc(-c2csc(NC(=O)c3ccc([N+](=O)[O-])s3)n2)cc1`, the pIC50 is 7.10.

Consider `c1ccc(Nc2nc(-c3ccccn3)cc(N3CCOCC3)n2)cc1`, for which the pIC50 is 4.80.

For the molecule `CC(C)C[C@H](NC(=O)c1ccc(-c2ccccc2)o1)C(=O)NC1(C#N)CC1`, the pIC50 was 7.00.

Consider `Cc1ccc(Nc2nc(C3CCCN3Cc3ccn[nH]3)cs2)nc1` (stereo not drawn), for which the pIC50 was 6.10.

In the case of `O=C(Nc1cccc(Cl)c1)Nc1ccc([N+](=O)[O-])cc1Cl`, the pIC50 is 5.60.

Turning to `Cc1nn(-c2nc(N)nc(-c3ccccn3)n2)c(N)c1-c1ccccc1`, the pIC50 is 5.70.

For `Cc1c(C#N)c([N+](=O)[O-])nn1Cc1cccc(Cl)c1Cl`, the negative logarithm of the IC50 (pIC50) is 4.80.

With `CC(C)(C)C(=O)NCCc1csc(-c2ccc(F)cc2)n1`, the pIC50 is 6.20.
